The record followed here is the Kinase Knowledgebase extract (Sharma et al. 2016).

The experiment has as its target PIK3CG (human) (UniProt P48736). The experiment can be described thus: Assessment of PIK3CG Kinase Activity.

Chain of PIK3CG (human) (P48736 whole entry, looked up): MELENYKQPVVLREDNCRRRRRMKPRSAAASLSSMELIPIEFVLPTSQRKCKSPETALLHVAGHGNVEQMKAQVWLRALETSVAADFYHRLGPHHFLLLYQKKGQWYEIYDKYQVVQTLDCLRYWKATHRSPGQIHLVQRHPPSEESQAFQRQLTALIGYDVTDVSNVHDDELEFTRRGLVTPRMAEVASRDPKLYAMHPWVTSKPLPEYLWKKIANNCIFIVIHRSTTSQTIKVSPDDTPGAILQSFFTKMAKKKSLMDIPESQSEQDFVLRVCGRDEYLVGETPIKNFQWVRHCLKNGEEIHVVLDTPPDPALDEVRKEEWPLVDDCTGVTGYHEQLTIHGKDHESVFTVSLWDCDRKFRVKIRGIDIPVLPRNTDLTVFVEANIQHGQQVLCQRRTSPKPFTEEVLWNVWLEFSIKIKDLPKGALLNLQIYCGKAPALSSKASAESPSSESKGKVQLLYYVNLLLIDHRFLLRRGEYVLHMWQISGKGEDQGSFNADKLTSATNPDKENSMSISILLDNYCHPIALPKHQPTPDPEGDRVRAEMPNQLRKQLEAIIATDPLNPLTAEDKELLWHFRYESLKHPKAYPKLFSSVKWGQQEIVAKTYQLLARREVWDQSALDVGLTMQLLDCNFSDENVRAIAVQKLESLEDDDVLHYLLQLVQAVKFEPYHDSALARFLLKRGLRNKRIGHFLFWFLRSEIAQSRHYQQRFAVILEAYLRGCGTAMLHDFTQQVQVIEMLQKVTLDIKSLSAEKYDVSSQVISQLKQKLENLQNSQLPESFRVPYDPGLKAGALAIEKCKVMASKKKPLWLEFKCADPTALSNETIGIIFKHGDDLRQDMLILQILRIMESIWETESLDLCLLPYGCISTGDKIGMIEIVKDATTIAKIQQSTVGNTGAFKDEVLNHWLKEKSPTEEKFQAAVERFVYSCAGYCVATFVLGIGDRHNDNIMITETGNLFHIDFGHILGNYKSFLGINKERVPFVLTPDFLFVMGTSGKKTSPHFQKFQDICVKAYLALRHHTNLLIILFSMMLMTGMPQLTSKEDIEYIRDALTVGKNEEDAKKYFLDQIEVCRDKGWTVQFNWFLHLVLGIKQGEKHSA

The IC50 is the concentration at which inhibition is half-maximal. `CC(=O)Nc1nc2c(s1)-c1c(cnn1-c1ccc(CC(=O)N3CCN(c4ccccn4)CC3)cc1)CC2` came in with an IC50 of under 0.8 µM.

`CN(C)CCNC(=O)Nc1nc2c(s1)-c1c(cnn1-c1ccccc1)C2` registered an IC50 of under 0.8 µM. With `CC(=O)Nc1nc2c(s1)-c1c(cnn1-c1ccccc1Cl)C2`, the IC50 is under 0.8 µM. In the case of `CC(=O)Nc1nc2c(s1)-c1c(cnn1-c1ccc(C(=O)N[C@H](CC(=O)O)C(N)=O)cc1Cl)CC2` it was under 0.8 µM. In the case of `CC(=O)Nc1nc2c(s1)-c1nc(-c3ccc(C(N)=O)cc3)ncc1CC2` it was under 0.8 µM; in that of `CC(=O)Nc1nc2c(s1)-c1c(cnn1-c1ccc(C(=O)N(C)Cc3ccccn3)cc1)CC2`, under 0.8 µM; in that of `CC(=O)Nc1nc2c(s1)-c1c(cnn1-c1ccc(C(=O)N[C@H](CCC(=O)O)C(N)=O)cc1Cl)CC2`, under 0.8 µM. `CC(=O)Nc1nc2c(s1)-c1c(cnn1-c1cccc(F)c1)CC2` had a half-inhibitory concentration (IC50) of under 0.8 µM.

In turn, `CC(=O)Nc1nc2c(s1)-c1c(cnn1-c1ccc(C(=O)NCCC3CCCN3C)cc1)CC2` (stereo not given) came in with an IC50 of under 0.8 µM. The figure for `CC(=O)Nc1nc2c(s1)-c1c(cnn1-c1ccc(C(=O)N3CCC4(CCN(C)C4)C3)cc1)CC2` (stereo not given) is under 0.8 µM; for `CC(=O)Nc1nc2c(s1)-c1nn(-c3ccccc3Cl)c(-c3cn(C)cn3)c1CC2` it is under 0.8 µM. Molecule `CC(=O)Nc1nc2c(s1)-c1c(cnn1-c1ccc(C(=O)N[C@H]3CC[C@@H](N4CCN(CC5CC5)CC4)CC3)cc1)CC2` displayed a half-maximal inhibitory concentration (IC50) of under 0.8 µM. For the molecule `CC(=O)Nc1nc2c(s1)-c1c(cnn1-c1ccc(C(=O)Nc3nc4ccccc4[nH]3)cc1)CC2`, the IC50 was under 0.8 µM.

With `CN(C)C(=O)Nc1nc2c(s1)-c1nc(-c3ccccc3)ncc1CC2`, the IC50 was under 0.8 µM.

With `CC(=O)Nc1nc2c(s1)-c1c(c(C(=O)NCCO)nn1-c1ccccc1)CC2`, the IC50 was under 0.8 µM. In turn, `CC(=O)Nc1nc2c(s1)-c1c(cnn1-c1ccc(C(=O)NCC3OCCO3)cc1)CC2` had an IC50 of under 0.8 µM.

In turn, `CC(=O)Nc1nc2c(s1)-c1c(cnn1-c1ccc(CC(=O)N(C)CC(C)O)cc1)CC2` (stereo not given) had an IC50 of under 0.8 µM. The figure for `CC(=O)Nc1nc2c(s1)-c1nn(-c3ccccc3)c(-c3cn(C)cn3)c1CC2` is under 0.8 µM; for `CC(=O)Nc1nc2c(s1)-c1c(cnn1-c1ccc(S(=O)(=O)N3CCN(C)CC3)cc1)CC2` it is under 0.8 µM; for `CC(=O)Nc1nc2c(s1)-c1nc(N(C)C)ncc1CC2` it is under 0.8 µM. The figure for `CC(=O)Nc1nc2c(s1)-c1c(cnn1C(C)C)CC2` is under 0.8 µM; for `CC(=O)Nc1nc2c(s1)-c1c(c([C@H]3CCCO3)nn1-c1ccccc1C(F)(F)F)CC2` it is under 0.8 µM; for `CC(=O)Nc1nc2c(s1)-c1c(cnn1-c1ccc(C(C)(C)C)cc1)CC2` it is under 0.8 µM. The figure for `COCc1nn(-c2ccccc2Br)c2c1CCc1nc(NC(C)=O)sc1-2` is under 0.8 µM; for `CCSC(=O)Nc1nc2c(s1)-c1c(cnn1-c1ccccc1)CC2` it is under 0.8 µM; for `CC(=O)Nc1nc2c(s1)-c1c(cnn1-c1ccc(CC(=O)N3CCC(CO)CC3)cc1)CC2` it is under 0.8 µM. On to `CC(=O)Nc1nc2c(s1)-c1c(cnn1-c1ccc(CC(=O)N3CCC(O)CC3)cc1)CC2`, for which the IC50 is under 0.8 µM.

Molecule `CC(=O)Nc1nc2c(s1)-c1c(cnn1-c1ccc(C(=O)O)cc1Cl)CC2` came in with an IC50 of under 0.8 µM.

For the molecule `CC(=O)Nc1nc2c(s1)-c1c(c(C(C)C)nn1-c1ccc(C(=O)N(C)Cc3ccncc3)cc1Cl)CC2`, the IC50 is under 0.8 µM. The figure for `O=CNc1nc2c(s1)-c1c(cnn1-c1ccccc1)CC2` is under 0.8 µM.

For `CC(=O)Nc1nc2c(s1)-c1c(cnn1-c1ccc(C(=O)Nc3ccc(C4CCN(C)CC4)cc3)cc1Cl)CC2`, the IC50 was under 0.8 µM. In the case of `NNC(=O)Nc1nc2c(s1)-c1c(cnn1-c1ccccc1)CC2` it was under 0.8 µM; in that of `CC=Cn1cc2c(n1)-c1sc(NC(C)=O)nc1CC2`, under 0.8 µM. The figure for `CC(=O)Nc1nc2c(s1)-c1nc(-c3cccc(C)c3)ncc1CC2` is under 0.8 µM; for `CC(=O)Nc1nc2c(s1)-c1c(cnn1-c1ccc(S(=O)(=O)O)cc1)CC2` it is under 0.8 µM; for `CC(=O)Nc1nc2c(s1)-c1c(cnn1-c1ccc(C(=O)N3CCCCC3CO)cc1)CC2` (stereo not given) it is under 0.8 µM. The figure for `CC(=O)Nc1nc2c(s1)-c1c(cnn1-c1ccc(C(=O)N[C@H]3CC[C@H](N4CCN(C)CC4)CC3)cc1)CC2` is under 0.8 µM. As for `CNC(=O)Nc1nc2c(s1)-c1nc(-c3ccccc3)ncc1CC2`, the IC50 is under 0.8 µM. In the case of `CC(=O)Nc1nc2c(s1)-c1nn(-c3ccc(C(=O)NC4CCN(C5CCCC5)CC4)cc3Cl)c(-c3ccco3)c1CC2` it was under 0.8 µM; in that of `CC(=O)Nc1nc2c(s1)-c1c(cnn1-c1ccc(C(=O)NCCCCCCN)cc1)CC2`, under 0.8 µM.

The molecule `CC(=O)Nc1nc2c(s1)-c1c(cnn1-c1ccc(C(=O)N[C@@H](CCc3ccccc3)C(N)=O)cc1Cl)CC2` displayed an IC50 of under 0.8 µM. The figure for `CC(=O)Nc1nc2c(s1)-c1c(c(-c3ccco3)nn1-c1ccc(Br)cc1C(F)(F)F)CC2` is under 0.8 µM; for `COCc1nn(-c2ccc(C(=O)N(C)C3CCN(C)CC3)cc2Cl)c2c1CCc1nc(NC(C)=O)sc1-2` it is under 0.8 µM; for `CC(=O)Nc1nc2c(s1)-c1c(cnn1C1CCN(C(=O)C(F)(F)F)CC1)CC2` it is under 0.8 µM. As to `CC(=O)Nc1nc2c(s1)-c1c(cnn1-c1ccc(S(N)(=O)=O)cc1)CC2`, the IC50 is under 0.8 µM. `CC(=O)Nc1nc2c(s1)-c1c(c(-c3ccoc3)nn1-c1ccccc1)CC2`: the IC50 is under 0.8 µM.

`CC(=O)Nc1nc2c(s1)-c1c(cnn1-c1ncccn1)CC2` registered a 50% inhibitory concentration (IC50) of under 0.8 µM. The figure for `CC(=O)Nc1nc2c(s1)-c1c(cnn1-c1cccc(Cl)c1)C2` is under 0.8 µM; for `CC(=O)Nc1nc2c(s1)-c1c(cnn1-c1ccc(C(=O)N[C@@H](C(N)=O)C(C)C)cc1Cl)CC2` it is under 0.8 µM. The figure for `CC(=O)Nc1nc2c(s1)-c1c(c(-c3ccco3)nn1-c1ccccc1Br)CC2` is under 0.8 µM.

As for `CC(=O)Nc1nc2c(s1)-c1c(cnn1-c1ccc(C(=O)N[C@@H](CCS(C)(=O)=O)C(N)=O)cc1Cl)CC2`, the IC50 was under 0.8 µM. In the case of `CCNC(=O)Nc1nc2c(s1)-c1c(cnn1-c1ccccc1)CC2` it was under 0.8 µM; in that of `COC(=O)c1nn(-c2ccccc2Cl)c2c1CCc1nc(NC(C)=O)sc1-2`, under 0.8 µM. In turn, `CN(C)c1ncc2c(n1)-c1sc(NC(N)=O)nc1CC2` came in with an IC50 of under 0.8 µM. The figure for `CC(=O)Nc1nc2c(s1)-c1c(cnn1-c1ccc(S(=O)(=O)N(C)CCN(C)C)cc1)CC2` is under 0.8 µM; for `CC(=O)Nc1nc2c(s1)-c1c(cnn1C(=O)C1CC1)CC2` it is under 0.8 µM. The figure for `CC(=O)Nc1nc2c(s1)-c1c(cnn1-c1ccc(C(=O)N[C@@H](Cc3c[nH]cn3)C(N)=O)cc1Cl)CC2` is under 0.8 µM. In the case of `CC(=O)Nc1nc2c(s1)-c1c(cnn1-c1ccc(C(=O)N[C@@H](Cc3ccc(O)cc3)C(N)=O)cc1Cl)CC2` it was under 0.8 µM; in that of `CC(=O)Nc1nc2c(s1)-c1c(c([C@H]3CCCO3)nn1-c1ccc(C(=O)N(C)Cc3ccncc3)cc1Cl)CC2`, under 0.8 µM; in that of `CC(=O)Nc1nc2c(s1)-c1c(cnn1-c1ccc(C(=O)NC(C)CO)cc1)CC2` (stereo not given), under 0.8 µM. In turn, `CC(=O)Nc1nc2c(s1)-c1c(c(-c3ccccn3)nn1-c1ccccc1)CC2` displayed an IC50 of under 0.8 µM. The figure for `CC(=O)Nc1nc2c(s1)-c1c(cnn1-c1ccc(C(=O)NC(C)(C)CN3CCN(C)CC3)cc1)CC2` is under 0.8 µM. In the case of `CC(=O)Nc1nc2c(s1)-c1c(cnn1-c1ccc(CC(=O)N3CCN(C(C)=O)CC3)cc1)CC2` it was under 0.8 µM; in that of `CC(=O)Nc1nc2c(s1)-c1c(cnn1-c1ccc(C(=O)N[C@@H]3CCOC3=O)cc1)CC2`, under 0.8 µM; in that of `CC(=O)Nc1nc2c(s1)-c1c(cnn1-c1ccc(C(=O)NCc3ccccc3C(N)=O)cc1)CC2`, under 0.8 µM.

As to `CC(=O)Nc1nc2c(s1)-c1c(cnn1-c1ccc(C(=O)N(C)CCO)cc1)CC2`, the IC50 is under 0.8 µM.

Molecule `CC(=O)Nc1nc2c(s1)-c1c(cnn1-c1ccc(C(=O)N(C)Cc3nccn3C)cc1)CC2` gave an IC50 of under 0.8 µM. In the case of `CCC(=O)Nc1nc2c(s1)-c1nc(-c3ccccc3)ncc1CC2`, the IC50 is under 0.8 µM.

In the case of `CC(=O)Nc1nc2c(s1)-c1c(cnn1-c1ccc(C(=O)NC3CCCC3)cc1)CC2`, the IC50 was under 0.8 µM.

The molecule `CC(=O)Nc1nc2c(s1)-c1c(cnn1-c1ccc(CC(=O)N3CCN(c4ccncc4)CC3)cc1)CC2` showed a concentration for half-maximal inhibition (IC50) of under 0.8 µM.

Turning to `CC(=O)Nc1nc2c(s1)-c1cc(NC(=O)C(C)C)ccc1CC2`, the half-maximal inhibitory concentration (IC50) is under 0.8 µM. The figure for `CC(=O)Nc1nc2c(s1)-c1c(c(-c3ccco3)nn1-c1cccc(Cl)c1)CC2` is under 0.8 µM. As for `CC(=O)Nc1nc2c(s1)-c1c(cnn1-c1ccc(C(=O)NCc3ccncc3)cc1)CC2`, the IC50 is under 0.8 µM. Take `COC(=O)Nc1nn(-c2ccccc2Cl)c2c1CCc1nc(NC(C)=O)sc1-2`: the IC50 is under 0.8 µM. The figure for `CC(=O)Nc1nc2c(s1)-c1c(cnn1-c1ccc3ccccc3c1)CC2` is under 0.8 µM; for `CC(=O)Nc1nc2c(s1)-c1c(cnn1-c1ccc(CC(=O)N3CCCC(C(N)=O)C3)cc1)CC2` (stereo not given) it is under 0.8 µM. The figure for `CC(=O)Nc1nc2c(s1)-c1nn(C(=O)C3CC3)cc1CC2` is under 0.8 µM; for `CC(=O)Nc1nc2c(s1)-c1c(cnn1-c1ccc(CC(=O)N3CCC(C(N)=O)CC3)cc1)CC2` it is under 0.8 µM. The figure for `CC(=O)Nc1nc2c(s1)-c1nc(N3CCCC(CNC(=O)OC(C)(C)C)C3)ncc1CC2` (stereo not given) is under 0.8 µM; for `CNC(=O)c1ccc(-c2ncc3c(n2)-c2sc(NC(C)=O)nc2CC3)cc1` it is under 0.8 µM. The molecule `CC(=O)Nc1nc2c(s1)-c1c(c([C@H]3CCCO3)nn1-c1ccc(C(=O)N[C@H]3CC[C@@H](N4CCCC4)CC3)cc1Cl)CC2` came in with an IC50 of under 0.8 µM. The figure for `O=C(Nc1nc2c(s1)-c1nc(-c3ccccc3)ncc1CC2)N1CCCC1` is under 0.8 µM. The figure for `CC(=O)Nc1nc2c(s1)-c1c(c(NC(=O)OC(C)C)nn1-c1ccccc1Cl)CC2` is under 0.8 µM; for `CCN(CC)C(=O)C1CCCCN1C(=O)c1ccc(-n2ncc3c2-c2sc(NC(C)=O)nc2CC3)cc1` (stereo not given) it is under 0.8 µM; for `CC(=O)Nc1nc2c(s1)-c1c(cnn1-c1ccc(CC(=O)N3CCCC3c3ccccn3)cc1)CC2` (stereo not given) it is under 0.8 µM.
